# Test results published in patent publication US20250099474A1 (priority 2022, published 2025).
# Test system: SARS-CoV-2
# Assay: Phase 2/3 study, Phase 2b Part: score of 12 COVID-19 symptoms per unit time
# Assay type: in vivo, human
# Details: for Change from baseline up to 120 hours in total score of 12 COVID-19 symptoms per unit time: Adjusted mean value by covariance analysis (standard error) / Change from baseline up to 120 hours in total score of 12 COVID-19 symptoms per unit time: Difference of adjusted mean value from that of placebo group (standard error) / Change from baseline up to 120 hours in total score of 12 COVID-19 symptoms per unit time: Maximum value / Change from baseline up to 120 hours in total score of 12 COVID-19 symptoms per unit time: Mean value / Change from baseline up to 120 hours in total score of 12 COVID-19 symptoms per unit time: Median value / Change from baseline up to 120 hours in total score of 12 COVID-19 symptoms per unit time: Minimum value: mild/moderate patients, ITT1 population
# Description: The primary endpoints of Phase 2b Part were the time-weighted average change in the total score of 12 COVID-19 symptoms per unit time from the start of the first administration (Day 1) to 120 hours (Day 6), and the change from baseline in SARS-CoV-2 virus titer on Day 4, in mild/moderate SARS-CoV-2-infected patients, and the clinical improvement and the antiviral effect of the active drug were confirmed.
# The administration of the active drug is repeated oral administration once a day for 5 days. The 375/125 mg group received 375 mg on Day 1 as a loading dose and 125 mg on Days 2 to 5 as a maintenance dose. The 750/250 mg group received 750 mg on Day 1 as a loading dose and 250 mg on Days 2 to 5 as a maintenance dose.
# The primary efficacy endpoints of Phase 2b Part for mild/moderate SARS-CoV-2-infected patients were the time-weighted average change in the total score of 12 COVID-19 symptoms per unit time from the start of the first administration (Day 1) to 120 hours (Day 6), and the change from baseline in SARS-CoV-2 virus titer on Day 4. The total score of 12 COVID-19 symptoms is the sum of the scores determined by evaluation in four grades (0: none, 1: mild, 2: moderate, 3: severe) in the subject daily records for each of the 12 COVID-19 symptoms (low energy and tiredness, muscle or body aches, headache, chills or shivering, feeling hot or feverish, stuffy and runny nose, sore throat, cough, shortness of breath (difficulty breathing), nausea, vomiting, diarrhea).
# Pairwise comparison was performed between each active drug dose group and the placebo group. […] Pairwise comparison was performed between each active drug dose group and the placebo group.
# The results of classifying the twelve COVID-19 symptoms shown in the above (2-a) into 5 types (acute symptoms, major clinical symptoms, respiratory symptoms, systemic symptoms, and gastrointestinal symptoms) and analyzing the same (ITT population) are shown in the following table. • Acute symptoms: sore throat, cough, feeling hot and feverish • Major clinical symptoms: stuffy and runny nose, sore throat, cough, chills or shivering, feeling hot or feverish • Respiratory symptoms: stuffy and runny nose, sore throat, cough, shortness of breath (difficulty breathing) • Systemic symptoms: low energy and tiredness, muscle or body aches, headache, chills or shivering, feeling hot or feverish • Gastrointestinal symptoms: nausea, vomiting, diarrhea
# [1] = ITT population, 750/250 mg group
structure (smiles),measurement,setting,value
"Cn1cnc(Cn2c(=O)[nH]/c(=N\c3cc4cn(C)nc4cc3Cl)n(Cc3cc(F)c(F)cc3F)c2=O)n1 [(6E)-6-[(6-chloro-2-methyl-2H-indazol-5-yl)imino]-3-[(1-methyl-1H-1,2,4-triazol-3-yl)methyl]-1-[(2,4,5-trifluorophenyl)methyl]-1,3,5-triazinane-2,4-dione]","Change from baseline up to 120 hours in sub-total score per unit time, acute symptoms: Median value",[1],−2.71
same,"Change from baseline up to 120 hours in sub-total score per unit time, acute symptoms: Minimum value",[1],−6.93
same,"Change from baseline up to 120 hours in sub-total score per unit time, gastrointestinal symptoms: Adjusted mean value by covariance analysis (standard error)",[1],−1.08 (0.14)
same,"Change from baseline up to 120 hours in sub-total score per unit time, gastrointestinal symptoms: Difference of adjusted mean value from that of placebo group (standard error)",[1],0.25 (0.18)
same,"Change from baseline up to 120 hours in sub-total score per unit time, gastrointestinal symptoms: Maximum value",[1],0.50
same,"Change from baseline up to 120 hours in sub-total score per unit time, gastrointestinal symptoms: Mean value",[1],−1.13
same,"Change from baseline up to 120 hours in sub-total score per unit time, gastrointestinal symptoms: Median value",[1],−0.79
same,"Change from baseline up to 120 hours in sub-total score per unit time, gastrointestinal symptoms: Minimum value",[1],−5.78
same,"Change from baseline up to 120 hours in sub-total score per unit time, major clinical symptoms: Adjusted mean value by covariance analysis (standard error)",[1],−3.42 (0.14)
same,"Change from baseline up to 120 hours in sub-total score per unit time, major clinical symptoms: Difference of adjusted mean value from that of placebo group (standard error)",[1],−0.42 (0.17)
same,"Change from baseline up to 120 hours in sub-total score per unit time, major clinical symptoms: Maximum value",[1],0.39
same,"Change from baseline up to 120 hours in sub-total score per unit time, major clinical symptoms: Mean value",[1],−3.54
same,"Change from baseline up to 120 hours in sub-total score per unit time, major clinical symptoms: Median value",[1],−3.42
same,"Change from baseline up to 120 hours in sub-total score per unit time, major clinical symptoms: Minimum value",[1],−10.11
same,"Change from baseline up to 120 hours in sub-total score per unit time, respiratory symptoms: Adjusted mean value by covariance analysis (standard error)",[1],−2.16 (0.12)
same,"Change from baseline up to 120 hours in sub-total score per unit time, respiratory symptoms: Difference of adjusted mean value from that of placebo group (standard error)",[1],−0.44 (0.15)
same,"Change from baseline up to 120 hours in sub-total score per unit time, respiratory symptoms: Maximum value",[1],2.29
same,"Change from baseline up to 120 hours in sub-total score per unit time, respiratory symptoms: Mean value",[1],−2.33
same,"Change from baseline up to 120 hours in sub-total score per unit time, respiratory symptoms: Median value",[1],−2.30
same,"Change from baseline up to 120 hours in sub-total score per unit time, respiratory symptoms: Minimum value",[1],−6.34
same,"Change from baseline up to 120 hours in sub-total score per unit time, systemic symptoms: Adjusted mean value by covariance analysis (standard error)",[1],−3.16 (0.14)
same,"Change from baseline up to 120 hours in sub-total score per unit time, systemic symptoms: Difference of adjusted mean value from that of placebo group (standard error)",[1],0.30 (0.17)
same,"Change from baseline up to 120 hours in sub-total score per unit time, systemic symptoms: Maximum value",[1],2.71
same,"Change from baseline up to 120 hours in sub-total score per unit time, systemic symptoms: Mean value",[1],−3.19
same,"Change from baseline up to 120 hours in sub-total score per unit time, systemic symptoms: Median value",[1],−2.81
same,"Change from baseline up to 120 hours in sub-total score per unit time, systemic symptoms: Minimum value",[1],−9.66
same,Change from baseline up to 120 hours in total score of 12 COVID-19 symptoms per unit time: Adjusted mean value by covariance analysis (standard error),375/125 mg group,−5.37 (0.24)
same,Change from baseline up to 120 hours in total score of 12 COVID-19 symptoms per unit time: Difference of adjusted mean value from that of placebo group (standard error),375/125 mg group,−0.24 (0.30)
same,Change from baseline up to 120 hours in total score of 12 COVID-19 symptoms per unit time: Maximum value,375/125 mg group,2.43
same,Change from baseline up to 120 hours in total score of 12 COVID-19 symptoms per unit time: Mean value,375/125 mg group,−5.95
same,Change from baseline up to 120 hours in total score of 12 COVID-19 symptoms per unit time: Median value,375/125 mg group,−5.40
same,Change from baseline up to 120 hours in total score of 12 COVID-19 symptoms per unit time: Minimum value,375/125 mg group,−20.37
same,Change from baseline up to 120 hours in total score of 12 COVID-19 symptoms per unit time: Adjusted mean value by covariance analysis (standard error),750/250 mg group,−5.17 (0.23)
same,Change from baseline up to 120 hours in total score of 12 COVID-19 symptoms per unit time: Difference of adjusted mean value from that of placebo group (standard error),750/250 mg group,−0.04 (0.29)
same,Change from baseline up to 120 hours in total score of 12 COVID-19 symptoms per unit time: Maximum value,750/250 mg group,2.47
same,Change from baseline up to 120 hours in total score of 12 COVID-19 symptoms per unit time: Mean value,750/250 mg group,−5.42
same,Change from baseline up to 120 hours in total score of 12 COVID-19 symptoms per unit time: Median value,750/250 mg group,−4.92
same,Change from baseline up to 120 hours in total score of 12 COVID-19 symptoms per unit time: Minimum value,750/250 mg group,−18.16
